Counter-ions that a name gives are not always drawn. Like-named read-outs stand apart in the source and are kept apart here. Where a SMILES comes first, the peptide text is derived from it. [ ]: non-standard residue; d: D form. The star is where a group is joined. Tos = Cc1ccc(S(=O)(=O)*)cc1; PhAc = O=C(Cc1ccccc1)*

What all share (assay type): biochemical
Assay [1] addresses T1, plasmin (Homo sapiens, UniProt P00747).
T1 construct: purchased Sankyo (Sankyo Color Test α2 -PI Assay Kit Standard)
The assay can be described thus: Assay for inhibitory activity against plasmin (synthetic substrate PS-994). The note with it: for IC50: PS-994, pH 7.8, 37° C. The source says:
(§1) As synthetic substrate used to examine the activity of the inhibitor for inhibiting substrate decomposition with the enzyme, there were used PS-994 (H-D-Lys(Tos)-Phe-Lys-CHA.2HCl, manufactured by Nitto Boseki Co., Ltd.) for plasmin, PS-915 (H-D-Phe-Pro-Arg-CHA.2HCl, manufactured by Nitto Boseki Co., Ltd.) for thrombin and trypsin, PS-2000 (Z-D-Lys(HCO)-Gly-Arg-CHA.HCl, manufactured by Nitto Boseki Co., Ltd.) for factor Xa, S-2302 (H-D-Pro-Phe-Arg-pNA, manufactured by Kabi Co.) for kallikrein, and MUK-34: [drawing 5] for urokinase.
(§2) As plasmin, thrombin, trypsin, factor Xa, kallikrein and urokinase, there were used 0.3 CU/ml of Sankyo Color Test α2 -PI Assay Kit Standard, 1.2 NIH U/ml of Sankyo Color Test ATIII Assay Kit, 2 μg/ml of Code 3703 manufactured by Worsingstone Co., 0.25 U/ml of human factor Xa manufactured by Boehringer Mannheim, 0.12 U/ml of human plasma kallikrein manufactured by Kabi Co., and 1000 U/ml of Mochida Pharmaceutical Urokinase 60,000 (60,000 U/vial), respectively. In the case of CHA type substrate, a color-forming termination solution for Sankyo Color Test Kit was used. Enzyme reactions were carried out at 37° C.
Assay For Inhibitory Activity Against Plasmin
Each aqueous solution (0.1 ml) of the inhibitor having various concentrations was added to 0.4 ml of buffer (150 mM sodium chloride aqueous solution containing 100 mM Tris, pH 7.8) and the mixture was heated for 5 minutes. After 0.2 ml of the plasmin solution was added thereto, the mixture was reacted for 5 minutes. After 0.1 ml of PS-994 solution (10 mM) was added thereto, and the mixture was again reacted for 5 minutes. Then, 2.0 ml of the color-forming termination solution was added to the reaction mixture. Then the mixture was allowed to stand for 10 minutes and absorbance was measured at 700 nm. A concentration of the inhibitor in the reaction system showing 1/2 absorbance that of the case where no inhibitor was present was determined to be IC50.

The target in assay [2] is T2, thrombin (Homo sapiens, UniProt P00734).
T2 construct: purchased Sankyo (Sankyo Color Test ATIII Assay Kit)
The assay is described as follows: Assay for inhibitory activity against thrombin (synthetic substrate PS-915). The conditions noted are these: for IC50: PS-915, pH 8.5, 37° C.
Description: as §1, §2
Assay For Inhibitory Activity Against Thrombin
Each aqueous solution (0.1 ml) of the inhibitor having various concentrations was added to 0.4 ml of buffer (150 mM sodium chloride aqueous solution containing 150 mM Tris, pH 8.5) and the mixture was heated for 5 minutes. Then, 0.2 ml of the thrombin solution was added thereto and the mixture was reacted for 5 minutes. After 0.1 ml of PS-915 solution (10 mM) was added thereto, the mixture was again reacted for 5 minutes. Then, 2 ml of the color-forming termination solution was added to the reaction mixture. Then the mixture was allowed to stand for 10 minutes and absorbance was measured at 700 nm. IC50 was determined by the method described above.

The target in assay [3] is T3, trypsin (Bos taurus, UniProt P00760).
T3 construct: purchased Worsingstone Co. (so in the source)
T3 sequence (P00760 24-246): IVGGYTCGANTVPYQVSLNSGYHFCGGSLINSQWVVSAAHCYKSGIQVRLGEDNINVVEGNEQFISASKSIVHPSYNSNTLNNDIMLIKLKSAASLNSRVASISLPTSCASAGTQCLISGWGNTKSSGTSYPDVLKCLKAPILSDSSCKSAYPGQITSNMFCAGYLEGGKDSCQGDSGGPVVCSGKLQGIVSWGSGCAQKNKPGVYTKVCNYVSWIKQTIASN
The assay can be described thus: Assay for inhibitory activity against trypsin (synthetic substrate PS-915). The note with it: for IC50: PS-915, pH 8.0, 37° C.
Description: as §1, §2
Assay For Inhibitory Activity Against Trypsin
After 0.1 ml of an aqueous solution of the inhibitor was added to 0.5 ml of buffer (150 mM sodium chloride aqueous solution containing 150 mM Tris, pH 8.0) and the mixture was heated for 5 minutes, 0.1 ml of trypsin solution was added thereto. The mixture was reacted for 5 minutes. Furthermore, 0.1 ml of PS-915 solution (10 mM) was added thereto. The mixture was again reacted for 5 minutes. Then, 2 ml of the color-forming termination solution [containing 2.5 mg/ml of soybean trypsin inhibitor (manufactured by Sigma Co., No. T-9003)] was added to the reaction mixture. Then the mixture was allowed to stand for 10 minutes and absorbance was measured at 700 nm. IC50 was determined by the method described above.

Assay [4] has as its target T4, human plasma kallikrein (Homo sapiens, UniProt P03952).
T4 construct: purchased Kabi Co
The assay can be described thus: Assay for inhibitory activity against kallikrein (synthetic substrate S-2302). The note with it: for IC50: S-2302, pH 8.0, 37° C.
Description: as §1, §2
Assay For Inhibitory Activity Against Kallikrein
To 0.4 ml of buffer (150 mN sodium chloride aqueous solution containing 50 mM Tris, pH 8.0) was added 0.1 ml each of aqueous solutions of the inhibitor having various concentrations and the mixture was heated for 5 minutes. Then, 0.1 ml of kallikrein solution (containing 0.5% bovine serum albumin, No. A-8022 of Sigma Co.) was added thereto, and the mixture was reacted for 5 minutes. Furthermore, 10 mM S-2302 aqueous solution (0.1 ml) was added thereto, and the mixture was again reacted for 5 minutes. Then, 5 ml of 20% acetic acid aqueous solution was added to terminate the reaction. Absorbance was measured at 405 nm and IC50 was determined by the method described above.

In assay [5] the target is T5, human factor Xa (Homo sapiens, UniProt P00742).
T5 construct: purchased Boehringer Mannheim
The assay is described as follows: Assay for inhibitory activity against factor Xa (synthetic substrate PS-2000). The conditions noted are these: for IC50: PS-2000, pH 8.5, 37° C.
Description: as §1, §2
Assay For Inhibitory Activity Against Factor Xa
To 0.3 ml of buffer (150 mM sodium chloride aqueous solution containing 50 mM Tris, pH 8.5) was added 0.1 ml each of an aqueous solution of the inhibitor having various concentrations. The mixture was heated for 5 minutes. Then, 0.1 ml of factor Xa solution (150 mM solution chloride aqueous solution containing 50 mM Tris and 20 mM calcium chloride, pH 8.5) was added thereto, and the mixture was reacted for 5 minutes. Furthermore,5% polyvinylpyrrolidone solution (0.1 ml) containing 10 mM PS-2000 was added thereto, and the mixture was again reacted for 5 minutes. Then, 2 ml of the color-forming termination solution was added to the reaction mixture. Then the mixture was allowed to stand for 10 minutes and absorbance was measured at 700 nm. IC50 was determined by the method described above.

Assay [6] concerns the target T6, urokinase (Homo sapiens, UniProt P00749).
T6 construct: purchased Mochida Pharmaceutical Urokinase 60,000 (60,000 U/vial)
The assay can be described thus: Assay for inhibitory activity against urokinase (synthetic substrate MUK-34). The conditions noted are these: for IC50: MUK-34, pH 8.20, 37° C.
Description: as §1, §2
Assay For Inhibitory Activity Against Urokinase
An aqueous solution (0.1 ml) of […] the inhibitor was added to 0.3 ml of buffer (150 mM sodium chloride aqueous solution containing 50 mM Tris, pH 8.20) and the mixture was heated for 5 minutes. Thereafter 0.1 ml of urokinase solution (containing 50 mM Tris, 150 mM sodium chloride aqueous solution and 0.1% BSA, pH 8.20) was added thereto, and the mixture was reacted for 5 minutes. Furthermore, 10 mM MUK-34 aqueous solution (0.1 ml) was added thereto, and the mixture was reacted for 5 minutes. Then 10% acetic acid aqueous solution (2.0 ml) was added to the mixture to terminate the reaction. Absorbance was measured at 405 nm and IC50 was determined by the method described above.

[7] abbreviates: Table 3, compounds of the invention, read-out: Plasmin.
Where [8] appears, read: Table 3, compounds of the invention, read-out: Thrombin.
The mark [9] stands for this setting: Table 3, compounds of the invention, read-out: Trypsin.
Setting [10] is: Table 3, compounds of the invention, read-out: Kallikrein.
[11] abbreviates: Table 3, compounds of the invention, read-out: Factor.
[12] abbreviates: Table 3, compounds of the invention, read-out: Urokinase.
Setting [13] is: Table 2, known compounds, read-out: IC50 Plasmin.
Where [14] appears, read: Table 2, known compounds, read-out: IC50 Thrombin.
The mark [15] stands for this setting: Table 2, known compounds, read-out: IC50 Trypsin.
Setting [16] is: Table 2, known compounds, read-out: IC50 Kallikrein.
Where [17] appears, read: Table 2, known compounds, read-out: IC50 Factor Xa.
[18] abbreviates: Table 2, known compounds, read-out: IC50 Urokinase.

T5 sequence (P00742 235-488 limits assumed): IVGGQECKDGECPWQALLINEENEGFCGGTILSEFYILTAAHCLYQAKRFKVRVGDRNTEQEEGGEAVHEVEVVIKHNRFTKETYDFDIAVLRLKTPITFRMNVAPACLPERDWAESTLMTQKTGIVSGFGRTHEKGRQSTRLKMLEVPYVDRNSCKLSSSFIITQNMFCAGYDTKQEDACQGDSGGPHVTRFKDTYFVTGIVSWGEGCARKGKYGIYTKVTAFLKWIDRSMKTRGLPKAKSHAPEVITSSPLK
T5 sequence (P00742 41-179 partner limits assumed): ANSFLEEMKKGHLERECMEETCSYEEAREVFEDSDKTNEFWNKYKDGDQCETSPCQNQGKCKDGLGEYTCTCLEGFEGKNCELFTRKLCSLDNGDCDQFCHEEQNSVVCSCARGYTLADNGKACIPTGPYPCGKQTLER
T1 sequence (P00747 581-810 limits assumed, species assumed): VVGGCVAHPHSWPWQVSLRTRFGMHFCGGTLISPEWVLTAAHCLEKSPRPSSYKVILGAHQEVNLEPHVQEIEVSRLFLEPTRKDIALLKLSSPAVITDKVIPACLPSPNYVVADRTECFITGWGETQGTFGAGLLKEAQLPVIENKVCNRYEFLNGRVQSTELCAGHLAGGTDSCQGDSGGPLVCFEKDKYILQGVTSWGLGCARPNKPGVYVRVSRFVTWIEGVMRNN
T1 sequence (P00747 97-580 partner limits assumed, species assumed): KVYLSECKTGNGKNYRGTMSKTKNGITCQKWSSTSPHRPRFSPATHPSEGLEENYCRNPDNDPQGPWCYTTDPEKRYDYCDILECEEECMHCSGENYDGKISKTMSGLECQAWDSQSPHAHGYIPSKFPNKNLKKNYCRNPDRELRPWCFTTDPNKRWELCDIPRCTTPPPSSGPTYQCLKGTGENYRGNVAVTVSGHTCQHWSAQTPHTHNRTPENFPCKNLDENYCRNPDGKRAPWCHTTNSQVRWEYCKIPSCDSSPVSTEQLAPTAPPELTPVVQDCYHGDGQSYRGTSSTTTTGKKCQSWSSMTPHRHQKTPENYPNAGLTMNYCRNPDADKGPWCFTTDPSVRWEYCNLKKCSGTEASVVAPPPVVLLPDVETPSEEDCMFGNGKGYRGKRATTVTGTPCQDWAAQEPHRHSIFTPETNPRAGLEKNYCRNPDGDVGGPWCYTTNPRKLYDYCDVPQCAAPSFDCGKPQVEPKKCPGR
T4 sequence (P03952 20-638): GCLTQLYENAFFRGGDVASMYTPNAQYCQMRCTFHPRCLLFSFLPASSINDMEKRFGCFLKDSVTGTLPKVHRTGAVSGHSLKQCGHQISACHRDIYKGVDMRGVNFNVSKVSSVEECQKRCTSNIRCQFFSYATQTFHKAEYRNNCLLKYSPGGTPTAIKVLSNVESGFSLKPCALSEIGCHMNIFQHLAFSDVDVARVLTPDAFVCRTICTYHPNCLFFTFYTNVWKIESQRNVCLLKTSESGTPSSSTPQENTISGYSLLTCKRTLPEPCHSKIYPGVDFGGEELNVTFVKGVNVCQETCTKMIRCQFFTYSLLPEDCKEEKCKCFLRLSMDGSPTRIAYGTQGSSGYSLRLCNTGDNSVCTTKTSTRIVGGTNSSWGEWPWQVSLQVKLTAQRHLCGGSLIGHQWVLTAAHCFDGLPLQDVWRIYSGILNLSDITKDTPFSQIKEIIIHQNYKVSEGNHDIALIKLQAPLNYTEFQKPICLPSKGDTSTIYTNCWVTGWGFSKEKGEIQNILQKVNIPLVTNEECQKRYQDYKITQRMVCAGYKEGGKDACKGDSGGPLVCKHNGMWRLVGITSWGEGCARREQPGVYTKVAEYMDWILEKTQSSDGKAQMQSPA

`Cc1ccc(S(=O)(=O)NCCCC[C@@H](N)C(=O)N2CCC[C@H]2C(=O)N[C@H](C=O)CCCNC(=N)N)cc1` [Example 1, N-ε-(p-tosyl)-D-lysyl-L-prolyl-L-argininal sulfate] (H-[dK](Tos)-Pro-Arg-aldehyde): the IC50 in assay [1] (setting [7]) was determined as 1500 nM; in assay [2] (setting [8]), 300 nM; in assay [3] (setting [9]), 48 nM; in assay [4] (setting [10]) it was 29 nM; in assay [5] (setting [11]) it was 6500 nM; in assay [6] (setting [12]), 35000 nM.
As for `N=C(N)NCCC[C@@H](C=O)NC(=O)[C@@H]1CCCN1C(=O)[C@H](N)CCCCNC(=O)Cc1ccccc1` [Example 9, N-ε-phenylacetyl-D-lysyl-L-prolyl-L-argininal sulfate] (H-[dK](PhAc)-Pro-Arg-aldehyde), the IC50 in assay [1] (setting [7]) is 2600 nM; in assay [2] (setting [8]), 930 nM; in assay [3] (setting [9]) it was 68 nM; in assay [4] (setting [10]), 200 nM; in assay [5] (setting [11]), 15000 nM; in assay [6] (setting [12]), 83000 nM.
In the case of `CC(=O)N[C@@H](CC(C)C)C(=O)N[C@@H](CC(C)C)C(=O)N[C@H](C=O)CCCNC(=N)N` [Example A1, acetyl-L-leucyl-L-leucyl-argininal, reference compound], the “inhibitory activity against plasmin (in words)” value in assay [1] is reported as “do not strongly inhibit”. Moreover, the “inhibitory activity against trypsin (in words)” value in assay [3] is listed as “inhibit”. The “inhibitory activity against kallikrein (in words)” value in assay [4] is “do not strongly inhibit”. In addition, in assay [5], the “inhibitory activity against factor Xa (in words)” value was “do not strongly inhibit”. Further, the “inhibitory activity against urokinase (in words)” value in assay [6] is “do not strongly inhibit”.
For the molecule `N=C(N)NCCC[C@@H](C=O)NC(=O)[C@@H]1CCCN1C(=O)[C@H](N)Cc1ccccc1` [Example A2, D-phenylalanyl-L-prolyl-L-argininal, reference compound], the “inhibitory activity against plasmin (in words)” value in assay [1] was “do not strongly inhibit”. The IC50 is 19000 nM in assay [1] (setting [13]); 25 nM in assay [2] (setting [14]); 69 nM in assay [3] (setting [15]); 31000 nM in assay [4] (setting [16]); 25000 nM in assay [5] (setting [17]); 42000 nM in assay [6] (setting [18]). Also, the “inhibitory activity against thrombin (in words)” value in assay [2] is “inhibit”. In addition, in assay [3], the “inhibitory activity against trypsin (in words)” value is given as “inhibit”. The “inhibitory activity against kallikrein (in words)” value in assay [4] was “do not strongly inhibit”. Besides, the “inhibitory activity against factor Xa (in words)” value in assay [5] is “do not strongly inhibit”. In addition, the “inhibitory activity against urokinase (in words)” value in assay [6] is “do not strongly inhibit”.
With `CCOC(=O)c1ccc(OC(=O)CCCCCN=C(N)N)cc1` [Example A3, reference compound], the IC50 in assay [1] (setting [13]) is 40000 nM; in assay [2] (setting [14]), 32000 nM; in assay [3] (setting [15]), 1900 nM; in assay [4] (setting [16]), 4500 nM; in assay [5] (setting [17]), 13000 nM; in assay [6] (setting [18]) it was 1100 nM.
As to “N-α-(2-naphthalenesulfonyl)-N-ε-(p-tosyl)-D-lysyl-L-prolyl-L-argininal 1/2 sulfate [Example 20]”, the IC50 in assay [1] (setting [7]) is 250 nM; in assay [2] (setting [8]) it was 1200 nM; in assay [3] (setting [9]), 43 nM; in assay [4] (setting [10]), 170 nM; in assay [5] (setting [11]), 1100 nM; in assay [6] (setting [12]) it was 6600 nM.
For “N-α-N-ε-di(p-tosyl)-D-lysyl-L-prolyl-L-argininal1/2 sulfate [Example 17]”, the IC50 came out at 60 nM in assay [1] (setting [7]); 630 nM in assay [2] (setting [8]); 35 nM in assay [3] (setting [9]); 38 nM in assay [4] (setting [10]); 460 nM in assay [5] (setting [11]); 3500 nM in assay [6] (setting [12]).
With “N-α-isobutoxycarbonyl-N-ε-(p-tosyl)-D-lysyl-L-prolyl-L-argininal 1/2 sulfate [Example 15]”, the IC50 worked out at 59 nM in assay [1] (setting [7]); 440 nM in assay [2] (setting [8]); 22 nM in assay [3] (setting [9]); 37 nM in assay [4] (setting [10]); 350 nM in assay [5] (setting [11]); 1400 nM in assay [6] (setting [12]).
With “N-ε-(2-naphthalenesulfonyl)-D-lysyl-L-prolyl-L-argininal sulfate [Example 3]”, the IC50 in assay [1] (setting [7]) came to 550 nM; in assay [2] (setting [8]), 200 nM; in assay [3] (setting [9]), 32 nM; in assay [4] (setting [10]) it was 40 nM; in assay [5] (setting [11]), 3500 nM.
On to “N-ε-(p-toluoyl)-D-lysyl-L-prolyl-L-argininal sulfate [Example 7]”, for which the IC50 in assay [1] (setting [7]) is 1000 nM; in assay [2] (setting [8]), 350 nM; in assay [3] (setting [9]) it was 11 nM; in assay [4] (setting [10]), 200 nM; in assay [5] (setting [11]) it was 4800 nM; in assay [6] (setting [12]) it was 7900 nM.

For the origin of these results see patent US5153176A, “Tripeptide derivatives and protease inhibitor composition comprising the same” (Nitto Boseki Co., Ltd., priority 1990, dated 1992).
